Some results are limits rather than exact numbers.

The conditions of data set [1]: from COC(=O)[C@H](Cc1ccc(OC)c(B2OC(C)(C)C(C)(C)O2)c1)NC(=O)[C@H](C)NC(=O)[C@@H](NC(=O)OC(C)(C)C)c1ccc(OC)c(I)c1; cc_pd bond; PdCl2(dppf); acetonitrile; 70.3 mM; 44.0 °C; 3.0 h.
In data set [2] the test system is MB 5393 (COL), a methicillin-resistant S. aureus strain. As to the kind of experiment: Determination of minimum and synergistic inhibitory concentration. The data set is classed as cell-based. As to conditions: MRSA COL, 22 hours. A digest of the protocol:
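Broth microdilution: two-fold compound dilutions (final 64 to 0.0313 μg/mL) tested with and without subinhibitory imipenem (4 μg/mL) against MRSA COL at ~5×10^5 CFU/mL, 37°C, 22-24 hr stationary. MIC is lowest concentration preventing visible growth without imipenem; SIC same with imipenem.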

In data set [3] the test system is Staphylococcus aureus (strain B, MRSA COL). The data set is described as follows: Deep thigh MRSA infection mouse model. The data set is classed as in vivo, mice BALB/c. The protocol:
(§1) Female mice BALB/c mice (20-25 g) were rendered neutropenic via intraperitoneal injection of cyclophosphamide (Mead Johnson Pharmaceuticals) on Day −4 (250 mg/kg, disseminated) or Days −4/−1 (150/100 mg/kg, deep thigh) prior to experimental infection. Neutropenic mice were infected on Day 0 via intraperitoneal (disseminated) or intramuscular (deep thigh) injection of 0.1 ml containing ˜1-5×10^4 CFU Staphylococcus aureus (strain B, MRSA COL). Linezolid (Zyvox IV solution, Bell Medical) was employed as an assay control. Fifteen minutes post infection, increasing doses of Example 3 (20, 40 and 80 mg/kg) or vehicle were administered subcutaneously (SC) TID with or without Imipenem/Cilastatin (6/50 mg/kg SC TID, disseminated; 10/50 mg/kg SC TID, deep thigh). Twenty four hours post dosing, mice were euthanized and infected kidneys (disseminated) or thighs (deep thigh) were aseptically removed, placed in 4 ml sterile phosphate buffered saline (Fisher Scientific), and homogenized using a Polytron (Brinkmann Instruments). Homogenates were serially 100-fold diluted in 9.9 ml sterile saline and plated on Mannitol Salt Agar plates. Plates were incubated at 35° C. for 48 hours and colony forming units (CFU) of bacteria remaining per thigh were determined.

Data set [4] shares this test system. The data set is described as follows: Disseminated MRSA infection mouse model. The data set is classed as in vivo, mice BALB/c. The protocol:
as §1

In data set [5] the test system is MRSA strain COL. As to the kind of experiment: Checkerboard studies with imipenem. As to conditions: combined with Imipenem, FIG. 1. The data set is classed as cell-based, Staphylococcus aureus. As to the method: FIG. 1: An SpsB inhibitor and Imipenem synergize to inhibit bacterial growth in vitro. The MIC of SpsB inhibitor on the MRSA strain COL was assessed by varying the concentration of the compound (0.016-16 μg/ml) in the absence and presence of various concentrations of Imipenem (0.5-32 μg/ml) and FIC values were generated for both compounds.
The checkerboard method is the technique most frequently used to assess antimicrobial combinations in vitro. See Antibiotics in Laboratory Medicine, Victor Lorian ed., 2005). The checkerboard comprises a two-dimensional dilution scheme: columns in which each well contains the same amount of Drug A being two-fold diluted along the x-axis, and rows in which each well contains the same amount of Drug B being two-fold diluted on the Y-axis. The result is that each well contains a unique combination of the two drugs being tested. Also tested is the antimicrobial activity of each agent singly.
Imipenem was two-fold serially diluted along the Y-axis of 96-well U-bottom microtiter dishes (Fisher Scientific) in microbiological growth media (either brain heart infusion broth or cation-adjusted Mueller-Hinton broth +2% NaCl). […]
In this representation, data are expressed as fractional inhibitory concentrations (FIC), defined as the ratio between the MIC of one compound in the presence of the other, over its MIC alone. […]

Data set [6] deals with T1, SpsB (Staphylococcus aureus, UniProt P0A070).
T1 construct: using a bacterial membrane fraction as a source of SpsB; from tissue
T1 sequence (P0A070 1-191): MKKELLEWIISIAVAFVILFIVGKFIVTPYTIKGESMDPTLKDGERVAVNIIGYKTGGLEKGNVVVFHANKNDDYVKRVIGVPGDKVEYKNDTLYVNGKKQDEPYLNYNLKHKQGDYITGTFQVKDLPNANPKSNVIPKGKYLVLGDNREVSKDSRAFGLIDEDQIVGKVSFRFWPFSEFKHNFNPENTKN
The data set is described as follows: Inhibition of SpsB enzyme activity (fluorescence-based assay, bacterial membrane fraction). Type of data set: biochemical. A digest of the protocol: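 Membrane fraction from bacteria supplied SpsB (0.6 mg/mL final protein), added last to start reactions with 20 μM lipopeptide substrate decanoyl-K(DABCYL)-TPTAKA↓ASKKD-D(EDANS)-NH2 (Km≈5 μM). Cleavage was followed as rising fluorescence, excitation 340/emission 460 nm.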

In data set [1], `COC(=O)[C@@H]1Cc2ccc(OC)c(c2)-c2cc(ccc2OC)[C@H](NC(=O)OC(C)(C)C)C(=O)N[C@@H](C)C(=O)N1` registered a ring closure, yield of all isomers of 20%.
Broadly, the MIC is the least concentration at which growth counts as inhibited. For orientation: IC50 means the point on the concentration scale where inhibition reaches its midpoint. A high value points to weaker potency in that assay. As to `CCCc1ccc(-c2ccc(C(=O)NCCC(=O)N[C@@H](CCCCN)C(=O)N(C)[C@@H]3C(=O)N[C@@H](C)C(=O)N[C@H](C(=O)O)Cc4ccc(O)c(c4)-c4cc3ccc4O)cc2)cc1.O=C(O)C(F)(F)F` [EXAMPLE 3, (5S)-6-[[(7S,10S,13S)-13-carboxy-3,18-dihydroxy-10-methyl-8,11-dioxo-9,12-diazatricyclo[13.3.1.1^2,6]icosa-1(19),2(20),3,5,15,17-hexaen-7-yl](methyl)amino]-6-oxo-5-[(3-{[(4′-propylbiphenyl-4-yl)carbonyl]amino}propanoyl)amino]hexan-1-aminium trifluoroacetate], the SIC result in data set [2] (presence of imipenem (4 μg/mL)) is listed as “H (H: SIC 0.062-1)”. In data set [2] (Staphylococcus aureus, absence of imipenem, read-out: MIC), the MIC was less than 1 µg/mL. The “effect on MRSA COL bacterial burden” value in data set [3] (Example 3 alone, 20, 40 and 80 mg/kg SC TID, thighs, relative to vehicle, FIG. 2B) is listed as “negligible anti-bacterial effects”; in data set [4] (Example 3 alone, 20, 40 and 80 mg/kg SC TID, kidneys, relative to vehicle, FIG. 2A), “negligible anti-bacterial effects”. For the same molecule, the “reduction in bacterial burden” value is given as 2-3 log in data set [3] (co-administered with Imipenem/Cilastatin 10/50 mg/kg SC TID, deep thigh) and 2-3 log in data set [4] (co-administered with Imipenem/Cilastatin 6/50 mg/kg SC TID, disseminated). Further, the “synergy in isobologram (FIC) of bacterial growth” value in data set [5] is reported as “synergistic effect”. The same molecule yielded a half-maximal inhibitory concentration (IC50) in data set [6] of less than 10 nM.

For the origin of these results see US20130244929A1 (priority 2010, published 2013).
